For 2 compounds, number of arrhythmias and side effects results are on record in US20220395528A1, “AGENT FOR PREVENTING OR TREATING […] DEVICE FOR PREVENTING OR TREATING ARRHYTHMIA” (SCHOOL JURIDICAL PERSON THE KITASATO INSTITUTE, priority 2019, published 2022).

Molecules are shown by their SMILES.

For one data set, the system named is Pigs. Description: Number of arrhythmias on electrocardiogram in pigs after balloon occlusion of the anterior descending branch of the left coronary artery, gas inhalation (Experiment Example 1). The conditions noted are these: coronary blood flow interrupted, counted for 10 minutes of inhalation versus the preceding 10 minutes, FIG. 3. The data set is classed as in vivo. The procedure: Pigs were anesthetized with pentobarbital, and electrocardiogram measurement was performed. After tracheal intubation, an artificial respirator was connected, and respiratory management was performed. A catheter was inserted into the descending aorta from the inguinal region, a balloon was placed in the anterior descending branch of the left coronary artery, and the balloon was inflated to interrupt the blood flow. After 40 minutes, an electrocardiogram was measured without doing anything for 10 minutes, the number of arrhythmias was counted, and after that, for 10 minutes, the number of arrhythmias was counted in the same manner for a control group, a hydrogen inhalation group, a nitric oxide inhalation group, or a combination group (hydrogen and nitric oxide inhalation group) in a divided manner.
A gas inhaled by the control group was a mixed gas (oxygen concentration of 35%) of oxygen and nitrogen and containing no hydrogen or nitric oxide.

For data set [1] the following is noted: high-concentration hydrogen inhaled, gaseous hydrogen used as a gas for diving; cited from earlier work.

For `[HH]` [hydrogen], the number of arrhythmias result with Pigs (mixed gas of air and hydrogen, hydrogen concentration 1.3%) is given as “decreased”. Also, the side effects result in data set [1] is reported as “no side effects”. Take `[N]=O` [nitric oxide, reference compound]: in the data set with Pigs (mixed gas of air and nitric oxide, nitric oxide concentration 80 ppm), the number of arrhythmias entry was “increase”.
